The values that follow are results of earlier work, collected in patent US5547668A, “Conjugates of folate anti-effector cell antibodies” (The Board of Trustees of The University of Illinois, priority 1995, dated 1996).

This series deals with FR.
With `C#CCN(Cc1ccc2nc(N)[nH]c(=O)c2c1)c1ccc(C(=O)N[C@@H](CCC(=O)O)C(=O)O)cc1` [CB3717, N^10-propargyl-5,8-dideazafolic acid], the “affinity for the FR” value is “bind with high affinity”.

On to `C#CCN(Cc1ccc2nc(C)[nH]c(=O)c2c1)c1ccc(C(=O)N[C@@H](CCC(=O)O)C(=O)O)cc1` [ICI-198,583, 2-deamino-2-methyl-N^10-propargyl-5,8-dideazafolic acid], for which the “affinity for the FR” value was “bind with high affinity”.

As to `CN(Cc1cnc2nc(N)nc(N)c2n1)c1ccc(C(=O)N[C@@H](CCC(=O)O)C(=O)O)cc1` [MTX, methotrexate], the “affinity for the FR” value is “does not bind to MTX with high affinity”.
